According to US9688695B2, “Imidazothiadiazole and imidazopyrazine derivatives as protease activated receptor 4 (PAR4) inhibitors for treating platelet aggregation” (BRISTOL-MYERS SQUIBB COMPANY, priority 2012, dated 2017):

Target: PAR4 (Homo sapiens (Human), UniProt Q96RI0)
Test: FLIPR assay in PAR4-expressing HEK293 cells (PAR4 antagonist activity, calcium mobilization)
Type: cell-based
Details: H-Ala-Phe(4-F)-Pro-Gly-Trp-Leu-Val-Lys-Asn-Gly-NH2-induced calcium mobilization
Method in brief: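 HEK293 EBNA cells stably expressing human PAR4 (also endogenous PAR1) preincubated 30 min at room temperature with compound in HBSS/10 mM HEPES, 0.67% DMSO final. PAR4 agonist peptide then added and intracellular calcium mobilization monitored by fluorescence.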

Chain of PAR4 (Q96RI0 18-385): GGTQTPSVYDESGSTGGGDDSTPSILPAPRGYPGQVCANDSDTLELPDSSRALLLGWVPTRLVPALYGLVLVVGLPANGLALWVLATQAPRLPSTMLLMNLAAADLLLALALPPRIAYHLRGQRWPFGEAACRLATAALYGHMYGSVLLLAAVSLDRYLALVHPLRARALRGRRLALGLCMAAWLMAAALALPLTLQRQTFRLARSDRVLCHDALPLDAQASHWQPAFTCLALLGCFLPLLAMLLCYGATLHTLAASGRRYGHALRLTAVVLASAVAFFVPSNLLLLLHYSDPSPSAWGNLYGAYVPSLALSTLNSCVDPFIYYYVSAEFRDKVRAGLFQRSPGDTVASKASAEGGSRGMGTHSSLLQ

Compound	EC50 [pM]
COc1cc(OCc2csc(-c3ccno3)n2)c2cc(-c3cn4nc(OC)sc4n3)oc2c1 [Example 116, 5-(4-(((6-Methoxy-2-(2-methoxyimidazo[2,1-b][1,3,4]thiadiazol-6-yl)benzofuran-4-yl)oxy)methyl)thiazol-2-yl)isoxazole]	320
COc1cc(OCc2nc(C3(O)CCOCC3)sc2C)c2cc(-c3cn4nc(OC)sc4n3)oc2c1 [Example 124, 4-(4-(((6-Methoxy-2-(2-methoxyimidazo[2,1-b][1,3,4]thiadiazol-6-yl)benzofuran-4-yl)oxy)methyl)-5-methylthiazol-2-yl)tetrahydro-2H-pyran-4-ol]	290
COc1cc(OCc2csc(N3CCN(S(C)(=O)=O)CC3)n2)c2cc(-c3cn4nc(OC)sc4n3)oc2c1 [Example 100, 2-Methoxy-6-(6-methoxy-4-((2-(4-(methylsulfonyl)piperazin-1-yl)thiazol-4-yl)methoxy)benzofuran-2-yl)imidazo[2,1-b][1,3,4]thiadiazole]	250
COc1cc(OCc2csc(C3CCCCC3)n2)c2cc(-c3cn4nc(OC)sc4n3)oc2c1 [Example 20]	1100
COc1cc(OCc2csc(-c3ccc(Cl)nc3)n2)c2cc(-c3cn4nc(C)ccc4n3)oc2c1 [Example 233]	2800
COc1cc(OCc2csc(N3CCN(c4ccccc4)CC3)n2)c2cc(-c3cn4nc(C)ccc4n3)oc2c1 [Example 262]	750
COc1cc(OCc2nc(C3(O)CCOCC3)sc2C)c2cc(-c3cn4nc([C@H](C)F)sc4n3)oc2c1 [Example 200, (S)-4-(4-(((2-(2-(1-Fluoroethyl)imidazo[2,1-b][1,3,4]thiadiazol-6-yl)-6-methoxybenzofuran-4-yl)oxy)methyl)-5-methylthiazol-2-yl)tetrahydro-2H-pyran-4-ol]	510
COC[C@@H]1CCCN1c1nc(COc2cc(OC)cc3oc(-c4cn5nc(OC)sc5n4)cc23)cs1 [Example 107, (S)-2-Methoxy-6-(6-methoxy-4-((2-(2-(methoxymethyl)pyrrolidin-1-yl)thiazol-4-yl)methoxy)benzofuran-2-yl)imidazo[2,1-b][1,3,4]thiadiazole]	1300
COc1cc(OCc2csc(-c3ccc(C(=O)N4CCCCCC4)cc3)n2)c2cc(-c3cn4nc(OC)sc4n3)oc2c1 [Example 303]	850
COc1cc(OCc2nc(-c3ccnc(F)c3)sc2C)c2cc(-c3cn4nc(OC)sc4n3)oc2c1 [Example 71]	460
COc1cc(OCc2csc(-c3ccc(C(=O)NCCN(C)C)cc3)n2)c2cc(-c3cn4nc(OC)sc4n3)oc2c1 [Example 307]	24000
COc1cc(OCc2csc(C3CCN(S(=O)(=O)C(F)(F)F)CC3)n2)c2cc(-c3cn4nc(OC)sc4n3)oc2c1 [Example 114, 2-Methoxy-6-(6-methoxy-4-((2-(1-((trifluoromethyl)sulfonyl)piperidin-4-yl)thiazol-4-yl)methoxy)benzofuran-2-yl)imidazo[2,1-b][1,3,4]thiadiazole]	490
COc1cc(OCc2csc(-c3ccc(C(=O)N4CC(O)C4)cc3)n2)c2cc(-c3cn4nc(OC)sc4n3)oc2c1 [Example 290]	600
COCCNc1nc(COc2cc(OC)cc3oc(-c4cn5nc(C)ccc5n4)cc23)cs1 [Example 251]	11000
COc1cc(OCc2csc(N3CCN(c4cccc(Cl)n4)CC3)n2)c2cc(-c3cn4nc(C)ccc4n3)oc2c1 [Example 284]	1100
COc1cc(OCc2nc(-c3ccccc3)sc2C)c2cc(-c3cn4nc(OC)sc4n3)oc2c1 [Example 13]	2100
COc1cc(OCc2csc(C3(c4ccccc4)CCOCC3)n2)c2cc(-c3cn4nc(OC)sc4n3)oc2c1 [Example 162, 2-Methoxy-6-(6-methoxy-4-((2-(4-phenyltetrahydro-2H-pyran-4-yl)thiazol-4-yl)methoxy)benzofuran-2-yl)imidazo[2,1-b][1,3,4]thiadiazole]	670
COc1cc(OCc2csc(N3CCC(C)CC3)n2)c2cc(-c3cn4nc(C)ccc4n3)oc2c1 [Example 259]	580

Compound	EC50 [pM]
COc1cc(OCc2csc(N(C)C(C)C)n2)c2cc(-c3cn4nc(C)ccc4n3)oc2c1 [Example 280]	6200
COc1cc(OCc2nc(-c3ccc(C(=O)NCC(F)(F)F)cc3)sc2C)c2cc(-c3cn4nc(OC)sc4n3)oc2c1 [Example 47, 4-(4-(((6-Methoxy-2-(2-methoxyimidazo[2,1-b][1,3,4]thiadiazol-6-yl)benzofuran-4-yl)oxy)methyl)-5-methylthiazol-2-yl)-N-(2,2,2-trifluoroethyl)benzamide]	770
COc1cccc(C2(c3nc(COc4cc(OC)cc5oc(-c6cn7nc(OC)sc7n6)cc45)cs3)CCOCC2)c1 [Example 158, 2-Methoxy-6-(6-methoxy-4-((2-(4-(3-methoxyphenyl)tetrahydro-2H-pyran-4-yl)thiazol-4-yl)methoxy)benzofuran-2-yl)imidazo[2,1-b][1,3,4]thiadiazole]	950
COc1cc(OCc2csc(C3(c4ccc(C)cc4)CCOCC3)n2)c2cc(-c3cn4nc(C)ccc4n3)oc2c1 [Example 242]	590
COc1cccc(Nc2nc(COc3cc(OC)cc4oc(-c5cn6nc(C)ccc6n5)cc34)cs2)c1 [Example 283]	2900
COc1cc(OCc2csc(-c3ccc(C(=O)N(C)C)cc3)n2)c2cc(-c3cn4nc([C@H](C)F)sc4n3)oc2c1 [Example 194, (S)-4-(4-(((2-(2-(1-Fluoroethyl)imidazo[2,1-b][1,3,4]thiadiazol-6-yl)-6-methoxybenzofuran-4-yl)oxy)methyl)thiazol-2-yl)-N,N-dimethylbenzamide]	1600
COc1cc(OCc2csc(Cl)n2)c2cc(-c3cn4nc(C)ccc4n3)oc2c1 [Example 206, 2-Chloro-4-(((6-methoxy-2-(6-methylimidazo[1,2-b]pyridazin-2-yl)benzofuran-4-yl)oxy)methyl)thiazole]	12000
COc1cc(OCc2csc(-c3cccnc3)n2)c2cc(-c3cn4nc(OC)sc4n3)oc2c1 [Example 30]	650
COc1cc(OCc2csc(N(C)CCC#N)n2)c2cc(-c3cn4nc(C)ccc4n3)oc2c1 [Example 250]	3600
COc1cc(OCc2csc(C3(F)CC(C)OC(C)C3)n2)c2cc(-c3cn4nc(OC)sc4n3)oc2c1 (centres unmarked) [Example 122, 6-(4-((2-(4-Fluoro-2,6-dimethyltetrahydro-2H-pyran-4-yl)thiazol-4-yl)methoxy)-6-methoxybenzofuran-2-yl)-2-methoxy-imidazo[2,1-b][1,3,4]thiadiazole]	720
COc1ccc(-c2nc(COc3cc(OC)cc4oc(-c5cn6nc(C)ccc6n5)cc34)cs2)cc1 [Example 214]	1200
COc1cc(OCc2csc(-c3ccc(C(=O)N(C)C(C)C)cc3)n2)c2cc(-c3cn4nc(OC)sc4n3)oc2c1 [Example 310]	530
COc1cc(OCc2csc(-c3ccc(C(=O)N4CCC(C)CC4)cc3)n2)c2cc(-c3cn4nc(OC)sc4n3)oc2c1 [Example 302]	440
COc1cc(OCc2csc(CC(C)C)n2)c2cc(-c3cn4nc(OC)sc4n3)oc2c1 [Example 50]	210
COc1cc(OCc2nc(-c3ccc(C(=O)N(C)C)cc3)sc2C)c2cc(-c3cn4nc(OC)sc4n3)oc2c1 [Example 66]	750
COc1cc(OCc2csc(-c3ccncc3)n2)c2cc(-c3cn4nc(C)ccc4n3)oc2c1 [Example 232]	990
COc1cc(OCc2csc(-c3ccc(F)cc3)n2)c2cc(-c3cn4nc(OC)sc4n3)oc2c1 [Example 15]	980
